Values quoted from earlier work, collected in patent publication US10092580B2, “Controlled-release otic structure modulating and innate immune system modulating compositions and methods for the treatment of otic disorders” (OTONOMY, INC., priority 2008, dated 2018).

Columns and labels:
V2-R = conditions: infusion into the scala tympani
[1] = minute concentrations (e.g., 0.05%)
[2] = administered by IV

For `Cc1ccccc1C(=O)Nc1ccc(C(=O)N2CCCC(N(C)C)c3ccccc32)cc1` (stereo not drawn) [OPC-31260], the “Meniere's disease symptoms” value (V2-R) is listed as “marked reduction”.

For `[H]/N=C(\N/C(=N/[H])NCCCCCCNC(=N)NC(=N)Nc1ccc(Cl)cc1)Nc1ccc(Cl)cc1` [chlorhexidene], the ototoxicity [1] is listed as “highly ototoxic”.

In the case of `CCN(CC)CC(=O)Nc1c(C)cccc1C` [Lidocaine], the “sufferers in whom the noise associated with tinnitus is reduced or eliminated” value [2] is given as 60-80%.
